GI50 and TGI data for six compounds are collected here from PubChem BioAssay (NCI).

Test systems include SK-MEL-28 melanoma; SF-295 CNS; SNB-75 CNS; U251 CNS; UACC-257 melanoma; EKVX NSCLC; SK-MEL-2 melanoma; HCC-2998 colon; CAKI-1 renal; UACC-62 melanoma.
Assay in all cases: NCI-60 cell line screen, 48 h

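The compound was tested at five concentrations on cells cultured in 96-well plates, with a 48-hour exposure period. Here, GI50 denotes the concentration required for 50% inhibition of growth. At the TGI there is no net growth.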

Take `O=C([O-])CC(=O)[O-].[NH-][C@@H]1CCCC[C@H]1[NH-].[Pt+4]`: the GI50 in the assay with SK-MEL-28 melanoma was 35.8 µM; in the assay with SF-295 CNS, 39.4 µM; with SNB-75 CNS it was over 35.9 µM; in the assay on U251 CNS, 17.4 µM; in the assay on UACC-257 melanoma, over 89 µM; in the assay with EKVX NSCLC it was over 100 µM. Also, the GI50 in the assay with SK-MEL-2 melanoma is 59.9 µM; with HCC-2998 colon, 18.9 µM; with CAKI-1 renal it was 3.53 µM; in the assay with UACC-62 melanoma, 20.2 µM. Besides, the TGI is over 100 µM with SK-MEL-28 melanoma; over 100 µM with SF-295 CNS; over 100 µM with SNB-75 CNS; over 83.3 µM with U251 CNS; over 100 µM with UACC-257 melanoma; over 100 µM with EKVX NSCLC. For the same compound, the TGI with SK-MEL-2 melanoma, in the assay on HCC-2998 colon, with CAKI-1 renal and in the assay on UACC-62 melanoma was over 100 µM throughout.

`CC(=O)[CH-]C(=O)c1ccccc1.CC(=O)[CH-]C(=O)c1ccccc1.[O-]c1ccc2c(c1)OCO2.[O-]c1ccc2c(c1)OCO2.[Ti+4]`: the GI50 in the assay on SK-MEL-28 melanoma was 32.7 µM; with SF-295 CNS it was 30.6 µM; in the assay on SNB-75 CNS it was 19.2 µM; in the assay on U251 CNS, 22.2 µM; in the assay with UACC-257 melanoma, 44 µM; in the assay with EKVX NSCLC, 25.8 µM. Further, the GI50 was 22.5 µM with SK-MEL-2 melanoma, 24.6 µM in the assay on HCC-2998 colon, 29.5 µM with CAKI-1 renal and 47.5 µM with UACC-62 melanoma. Moreover, the TGI with SK-MEL-28 melanoma is over 100 µM; in the assay with SF-295 CNS it was over 100 µM; in the assay with SNB-75 CNS, 66.1 µM; in the assay on U251 CNS, over 100 µM; in the assay with UACC-257 melanoma it was over 100 µM; in the assay with EKVX NSCLC, 72.9 µM. In addition, the TGI in the assay on SK-MEL-2 melanoma is 57.7 µM; with HCC-2998 colon it was 61.6 µM; in the assay on CAKI-1 renal, over 100 µM; in the assay with UACC-62 melanoma, over 100 µM.

Turning to `CC1(C)CCC[C@]2(C)c3ccccc3C(=O)CC12` (stereo not given in full), the GI50 in the assay on SK-MEL-28 melanoma was 64.6 µM; with SF-295 CNS, 40.7 µM; in the assay on SNB-75 CNS it was 34.6 µM; in the assay on U251 CNS, 42.3 µM; with UACC-257 melanoma, 32.5 µM; in the assay on EKVX NSCLC, 42.9 µM. In addition, the GI50 with SK-MEL-2 melanoma is 22 µM; in the assay on HCC-2998 colon it was 20.8 µM; with CAKI-1 renal, 83.1 µM; with UACC-62 melanoma it was 18.2 µM. The TGI in the assay with SK-MEL-28 melanoma, in the assay with SF-295 CNS, with SNB-75 CNS, with U251 CNS, in the assay on UACC-257 melanoma and with EKVX NSCLC was over 100 µM each time. Also, the TGI is 61.3 µM in the assay on SK-MEL-2 melanoma, 81.4 µM in the assay with HCC-2998 colon, over 100 µM in the assay with CAKI-1 renal and over 100 µM with UACC-62 melanoma.

Regarding `Nc1c2ccccc2nc2c(C(=O)Nc3ccc(S(N)(=O)=O)cc3)cccc12`, the TGI in the assay with SK-MEL-28 melanoma, in the assay with SF-295 CNS, with SNB-75 CNS, in the assay on U251 CNS, with UACC-257 melanoma and in the assay with EKVX NSCLC was over 100 µM each time. The TGI in the assay with SK-MEL-2 melanoma, in the assay on HCC-2998 colon, in the assay with CAKI-1 renal and with UACC-62 melanoma was over 100 µM throughout.

On to `CCCCn1c(=O)c(/C=C/C(=O)/C=C/c2cc3ccccc3n(CCCC)c2=O)cc2ccccc21`, for which the GI50 was 1.81 µM in the assay on SK-MEL-28 melanoma; 1.84 µM in the assay on SF-295 CNS; 2.8 µM in the assay with SNB-75 CNS; 1.03 µM with U251 CNS; 1.61 µM in the assay with UACC-257 melanoma; 1.88 µM in the assay with EKVX NSCLC. The GI50 was 2.09 µM in the assay on SK-MEL-2 melanoma, 1.01 µM in the assay with HCC-2998 colon, 1.87 µM in the assay on CAKI-1 renal and 1.61 µM in the assay with UACC-62 melanoma. Further, the TGI was 3.48 µM with SK-MEL-28 melanoma; 4.24 µM in the assay on SF-295 CNS; 8.12 µM with SNB-75 CNS; 2.24 µM in the assay on U251 CNS; 3 µM in the assay on UACC-257 melanoma; 4.42 µM with EKVX NSCLC. Besides, the TGI turned out to be 5.7 µM in the assay with SK-MEL-2 melanoma, 2.26 µM in the assay on HCC-2998 colon, 3.27 µM in the assay with CAKI-1 renal and 3.06 µM in the assay with UACC-62 melanoma.

Take `COc1ccc2nc3cc(Cl)ccc3c(Nc3cc(CN4CCCC4)c(O)c(CN4CCCC4)c3)c2n1`: the GI50 in the assay with SK-MEL-28 melanoma is 2.15 µM; in the assay with SF-295 CNS it was 2 µM; in the assay on SNB-75 CNS, 1.38 µM; with U251 CNS it was 2.21 µM; in the assay with UACC-257 melanoma it was 1.71 µM; in the assay on EKVX NSCLC, 2.34 µM. The GI50 is 1.73 µM in the assay on SK-MEL-2 melanoma, 1.25 µM with HCC-2998 colon, 2.37 µM with CAKI-1 renal and 1.74 µM in the assay on UACC-62 melanoma. For the same compound, the TGI with SK-MEL-28 melanoma stood at 4.5 µM; with SF-295 CNS, 6.51 µM; in the assay with SNB-75 CNS it was 2.7 µM; in the assay with U251 CNS, 11.5 µM; with UACC-257 melanoma, 3.26 µM; in the assay on EKVX NSCLC, 9.68 µM. Moreover, the TGI was 3.26 µM in the assay with SK-MEL-2 melanoma, 2.91 µM in the assay with HCC-2998 colon, 8.44 µM with CAKI-1 renal and 3.56 µM with UACC-62 melanoma.
